Reference: BindingDB's records for doi:10.1021/cb800162x (Yale University, 2008)
pEC50, pKd: −log10 of the molar value.

Experiments:
[1] = target: T1, Heat shock protein HSP 90-beta (Homo sapiens, UniProt P08238); assay: AlphaScreen Assay
Excerpt: AlphaScreen technology based high-throughput (ALPHA) assay is used to identify inhibitors of Hsp90-TPR2A interaction.

[2] = target: T1, Heat shock protein HSP 90-beta; assay: Cell Proliferation Assay; conditions: 37 °C
Excerpt: Cell assay using BT474, SKBR3 and MCF-12F cell lines measured by WST-1 colorimetric cell proliferation assay.

T1 sequence (P08238 whole entry): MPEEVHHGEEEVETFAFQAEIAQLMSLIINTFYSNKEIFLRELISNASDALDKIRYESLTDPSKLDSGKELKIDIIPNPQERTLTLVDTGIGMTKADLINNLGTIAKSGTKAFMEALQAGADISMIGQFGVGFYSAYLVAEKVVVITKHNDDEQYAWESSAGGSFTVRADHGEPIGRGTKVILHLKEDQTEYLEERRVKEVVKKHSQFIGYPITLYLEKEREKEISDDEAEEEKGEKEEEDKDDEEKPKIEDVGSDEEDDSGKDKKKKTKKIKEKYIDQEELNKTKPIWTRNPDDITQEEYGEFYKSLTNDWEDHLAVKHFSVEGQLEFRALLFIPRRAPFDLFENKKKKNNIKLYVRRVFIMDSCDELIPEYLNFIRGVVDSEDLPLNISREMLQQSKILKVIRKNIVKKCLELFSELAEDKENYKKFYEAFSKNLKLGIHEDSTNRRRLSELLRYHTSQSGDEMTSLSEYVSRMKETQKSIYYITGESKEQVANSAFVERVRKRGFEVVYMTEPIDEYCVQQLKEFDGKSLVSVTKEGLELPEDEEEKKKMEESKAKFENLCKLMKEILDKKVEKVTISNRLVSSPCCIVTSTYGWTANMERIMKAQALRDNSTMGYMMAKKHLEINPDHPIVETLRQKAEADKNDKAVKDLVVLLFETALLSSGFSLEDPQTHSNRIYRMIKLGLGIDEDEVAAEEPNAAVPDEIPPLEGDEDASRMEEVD

SMILES	pKd [1]	pEC50 [2]
CCn1nc(-c2ccccc2)nc2c(=O)n(C)c(=O)nc1-2 [1-Ethyl-6-methyl-3-phenyl-1H-pyrimido[5,4-e][1,2,4]triazine-5,7-dione]	6.44	5.76
CCCc1nc2c(=O)n(C)c(=O)nc-2n(C)n1 [1,6-dimethyl-3-propyl-pyrimido[5,4-e][1,2,4]triazine-5,7-dione]	6.38	6.04
CCn1nc(Cc2ccccc2)nc2c(=O)n(C)c(=O)nc1-2 [3-benzyl-1-ethyl-6-methyl-1H,5H,6H,7H-pyrimido[5,4-e][1,2,4]triazine-5,7-dione, 13]	6.74	5.37
Cc1nc2c(=O)n(C)c(=O)nc-2n(C)n1 [1,3,6-Trimethyl-1H-pyrimido[5,4-e][1,2,4]triazine-5,7-dione]	6.31	6.02
Cn1nc(-c2ccccc2)nc2c(=O)n(C)c(=O)nc1-2 [1,6-dimethyl-3-phenyl-1H,5H,6H,7H-pyrimido[5,4-e][1,2,4]triazine-5,7-dione, 10]	6.23	6.16
CCn1nc(-c2cccs2)nc2c(=O)n(C)c(=O)nc1-2 [1-ethyl-6-methyl-3-thiophen-2-yl-pyrimido[5,4-e][1,2,4]triazine-5,7-dione]	6.44	5.92
